Data on 24 compounds can be found in US12084436B2, “Heterocyclic compound” (Takeda Pharmaceutical Company Limited, priority 2019, dated 2024).

Molecules are shown by their SMILES.

The first experiment deals with T1, HDAC6 enzyme (Homo sapiens, UniProt Q9UBN7).
T1 construct: prepared by transducing full length HDAC6 gene into Sf-9 insect cells; GST; purchased SignalChem; host or cells: Sf-9 insect cells
T1 sequence (Q9UBN7 1-1215): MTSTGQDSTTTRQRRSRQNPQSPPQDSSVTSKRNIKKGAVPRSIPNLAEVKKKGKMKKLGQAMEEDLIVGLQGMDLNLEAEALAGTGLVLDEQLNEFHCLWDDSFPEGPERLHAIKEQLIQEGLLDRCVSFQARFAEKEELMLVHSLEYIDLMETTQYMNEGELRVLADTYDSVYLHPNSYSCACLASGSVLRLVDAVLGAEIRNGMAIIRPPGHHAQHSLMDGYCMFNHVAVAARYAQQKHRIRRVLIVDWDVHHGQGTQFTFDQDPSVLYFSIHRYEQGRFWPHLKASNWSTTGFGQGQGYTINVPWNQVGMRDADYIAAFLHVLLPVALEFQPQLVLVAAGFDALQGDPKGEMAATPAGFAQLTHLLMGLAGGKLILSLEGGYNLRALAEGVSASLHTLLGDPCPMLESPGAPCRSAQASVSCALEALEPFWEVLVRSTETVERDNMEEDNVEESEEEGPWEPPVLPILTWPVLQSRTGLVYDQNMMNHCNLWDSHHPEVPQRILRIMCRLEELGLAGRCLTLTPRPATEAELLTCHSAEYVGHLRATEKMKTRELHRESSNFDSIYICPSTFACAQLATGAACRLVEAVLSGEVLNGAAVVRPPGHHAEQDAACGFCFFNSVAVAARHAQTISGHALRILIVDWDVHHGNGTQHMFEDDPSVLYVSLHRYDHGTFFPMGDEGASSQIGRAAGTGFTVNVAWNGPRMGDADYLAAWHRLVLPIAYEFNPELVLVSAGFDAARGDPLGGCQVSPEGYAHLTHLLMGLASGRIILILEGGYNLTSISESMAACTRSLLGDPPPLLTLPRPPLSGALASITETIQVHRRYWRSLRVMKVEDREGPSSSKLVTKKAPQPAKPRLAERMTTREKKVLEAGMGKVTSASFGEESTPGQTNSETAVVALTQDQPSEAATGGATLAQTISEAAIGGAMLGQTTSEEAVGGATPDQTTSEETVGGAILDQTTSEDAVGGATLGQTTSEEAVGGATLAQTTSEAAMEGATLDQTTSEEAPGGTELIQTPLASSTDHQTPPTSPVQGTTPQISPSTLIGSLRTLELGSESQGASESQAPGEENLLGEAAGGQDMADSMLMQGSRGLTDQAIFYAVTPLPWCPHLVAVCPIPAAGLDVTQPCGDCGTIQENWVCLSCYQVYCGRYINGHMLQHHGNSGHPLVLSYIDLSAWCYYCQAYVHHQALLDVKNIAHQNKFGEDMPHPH
The experiment can be described thus: HDAC6 enzyme inhibitory assay (HDAC-Glo I/II Assay kit, luminescence). In kind it is biochemical. The following applies: 10 μM test compound; wells without enzyme = 100% inhibition; 10 µM. The protocol:
HDAC6 Enzyme Inhibitory Assay
HDAC6 enzyme prepared by transducing full length HDAC6 gene into Sf-9 insect cells and purifying by GST affinity column were purchased from SignalChem. Using this enzyme, HDAC6 enzyme inhibitory activities of the compound of the present invention were evaluated. Enzymes were used after preserved at −70° C. HDAC6 enzyme inhibitory activity of the compound of the present invention was measured using HDAC-Glo™ I/II Assay kit (Promega) according to the following experimental method. The test compound diluted with assay buffer (24 mM Tris-HCl (pH 7.5), 1 mM MgCl2, 0.35 mM KCl, 135 mM NaCl, 0.6 mM Glutathione, 0.01% Tween-20) was added to a 384-well plate by each 2 μL. Then, HDAC6 enzyme solution diluted with assay buffer was added thereto by each 4 μL, and the plate was incubated at room temperature for 60 min. After incubated, HDAC substrate-Developer solution prepared according to Promega protocol attached to the assay kit was added to the 384-well plate by each 2 μL, and the enzyme reaction was started. After reacting at room temperature for 20 min, luminescence level was measured using plate reader Envision (PerkinElmer). The inhibitory activity of each compound of Example was calculated as a relative activity value when luminescence level in wells without enzyme is considered as 100% inhibition.
In the case of `CN1C(=O)c2cc(-c3nnc(C(F)F)o3)cnc2CC1(C)c1ccc(F)c(F)c1` (single isomer, unassigned; isomer 2) [Example 40b, 3-[5-(difluoromethyl)-1,3,4-oxadiazol-2-yl]-7-(3,4-difluorophenyl)-6,7-dimethyl-7,8-dihydro-1,6-naphthyridin-5(6H)-one (optical isomer 2)], the “HDAC6 inhibitory rate (%) (10 μM)” value was determined as 100%.

The experiment is the same for the next values; noted with them: 10 μM test compound; wells without enzyme = 100% inhibition; read-out: HDAC6 inhibitory rate (%) (10 μM).
For `CN1C(=O)c2cc(-c3nnc(C(F)F)o3)ccc2CN1c1ccc(F)cc1` [Example 10b, 7-[5-(difluoromethyl)-1,3,4-oxadiazol-2-yl]-3-(4-fluorophenyl)-2-methyl-3,4-dihydrophthalazin-1(2H)-one], the inhibition at 10 µM was 100%.

As to `FC(F)c1nnc(-c2ccnc(-c3nccn3Cc3ccccc3)c2)o1` [Example 36a, 2-(1-benzyl-1H-imidazol-2-yl)-4-[5-(difluoromethyl)-1,3,4-oxadiazol-2-yl]pyridine], the inhibition at 10 µM came to 101%.

Take `CN(C1CC1)N1Cc2ccc(-c3nnc(C(F)F)o3)cc2C1=O` [Example 66c, 2-[cyclopropyl(methyl)amino]-6-[5-(difluoromethyl)-1,3,4-oxadiazol-2-yl]-2,3-dihydro-1H-isoindol-1-one]: the inhibition at 10 µM turned out to be 94%. With `COc1ccc(Cn2ccnc2-c2cc(-c3nnc(C(F)F)o3)ccn2)cc1` [Example 80a, 4-[5-(difluoromethyl)-1,3,4-oxadiazol-2-yl]-2-{1-[(4-methoxyphenyl)methyl]-1H-imidazol-2-yl}pyridine], the inhibition at 10 µM was determined as 104%. As to `Fc1cc(-c2nnc(C(F)F)o2)cc(-c2nccn2Cc2cnccn2)c1` [Example 43a, 2-[(2-{3-[5-(difluoromethyl)-1,3,4-oxadiazol-2-yl]-5-fluorophenyl}-1H-imidazol-1-yl)methyl]pyrazine], the inhibition at 10 µM turned out to be 98%. Turning to `Fc1cc(-c2nnc(C(F)F)o2)cc(-c2nccn2Cc2cncnc2)c1` [Example 25a, 5-[(2-{3-[5-(difluoromethyl)-1,3,4-oxadiazol-2-yl]-5-fluorophenyl}-1H-imidazol-1-yl)methyl]pyrimidine], the inhibition at 10 µM was 98%. The same measure, in the same setting: as for `O=C1c2cc(-c3nnc(C(F)F)o3)ccc2CN1NC1CCCCC1` [Example 29c, 2-(cyclohexylamino)-6-[5-(difluoromethyl)-1,3,4-oxadiazol-2-yl]-2,3-dihydro-1H-isoindol-1-one], the figure is 95%; as for `CC(C)(C)OC(=O)N(Cc1ccccc1)N1Cc2ccc(-c3nnc(C(F)F)o3)cc2C1=O` [Example 4c, tert-butyl benzyl {6-[5-(difluoromethyl)-1,3,4-oxadiazol-2-yl]-1-oxo-1,3-dihydro-2H-isoindol-2-yl}carbamate], 100%; as for `Cc1cc(Cn2ccnc2-c2cc(F)cc(-c3nnc(C(F)F)o3)c2)on1` [Example 62a, 2-(difluoromethyl)-5-(3-fluoro-5-{1-[(3-methyl-1,2-oxazol-5-yl)methyl]-1H-imidazol-2-yl}phenyl)-1,3,4-oxadiazole], 99%.

In the case of `Fc1cc(-c2nnc(C(F)F)o2)cc(-c2nccn2Cc2cccc(C(F)(F)F)c2)c1` [Example 67a], the inhibition at 10 µM was 99%. For `CCOC(=O)C(C)CN(C)N1Cc2ccc(-c3nnc(C(F)F)o3)cc2C1=O` (stereo not drawn) [Example 43c, ethyl 3-[{6-[5-(difluoromethyl)-1,3,4-oxadiazol-2-yl]-1-oxo-1,3-dihydro-2H-isoindol-2-yl}(methyl)amino]-2-methylpropanoate], the inhibition at 10 µM came out at 94%. As to `N#Cc1ccnc(Cn2ccnc2-c2cc(-c3nnc(C(F)F)o3)ccn2)c1` [Example 95a, 2-[(2-{4-[5-(difluoromethyl)-1,3,4-oxadiazol-2-yl]pyridin-2-yl}-1H-imidazol-1-yl)methyl]pyridine-4-carbonitrile], the inhibition at 10 µM turned out to be 100%. Regarding `CCS(=O)(=O)N(Cc1ccc(F)cc1)N1Cc2ccc(-c3nnc(C(F)F)o3)cc2C1=O` [Example 27c, N-{6-[5-(difluoromethyl)-1,3,4-oxadiazol-2-yl]-1-oxo-1,3-dihydro-2H-isoindol-2-yl}-N-[(4-fluorophenyl)methyl] ethanesulfonamide], the inhibition at 10 µM stood at 99%. The same measure, in the same setting: in the case of `O=C1CCCN1CCOc1cccnc1-c1cc(F)cc(-c2nnc(C(F)F)o2)c1` [Example 15a, 1-{2-[(2-{3-[5-(difluoromethyl)-1,3,4-oxadiazol-2-yl]-5-fluorophenyl}pyridin-3-yl)oxy]ethyl}pyrrolidin-2-one] it was 92%; in that of `CN(Cc1ccc2nccn2c1)N1Cc2ccc(-c3nnc(C(F)F)o3)cc2C1=O` [Example 45c, 6-[5-(difluoromethyl)-1,3,4-oxadiazol-2-yl]-2-{[(imidazo[1,2-a]pyridin-6-yl)methyl](methyl)amino}-2,3-dihydro-1H-isoindol-1-one], 99%; in that of `Fc1cc(-c2nnc(C(F)F)o2)cc(-c2ncccc2OCC2CCOC2)c1` (stereo not drawn) [Example 12a, 2-{3-[5-(difluoromethyl)-1,3,4-oxadiazol-2-yl]-5-fluorophenyl}-3-[(oxolan-3-yl)methoxy]pyridine], 99%. Regarding `CN(CC1CCC(F)(F)CC1)N1Cc2ccc(-c3nnc(C(F)F)o3)cc2C1=O` [Example 62c, 2-{[(4,4-difluorocyclohexyl)methyl](methyl)amino}-6-[5-(difluoromethyl)-1,3,4-oxadiazol-2-yl]-2,3-dihydro-1H-isoindol-1-one], the inhibition at 10 µM is 100%. For `CN1C(=O)c2cc(-c3nnc(C(F)F)o3)ccc2OC1(C)c1ccc(F)cc1` (stereo not drawn) [Example 7b, 6-[5-(difluoromethyl)-1,3,4-oxadiazol-2-yl]-2-(4-fluorophenyl)-2,3-dimethyl-2,3-dihydro-4H-1,3-benzoxazin-4-one], the inhibition at 10 µM is 100%.

As for `O=C1NN(c2ccc(F)c(F)c2)Cc2ncc(-c3nnc(C(F)F)o3)cc21` [Example 34b, 3-[5-(difluoromethyl)-1,3,4-oxadiazol-2-yl]-7-(3,4-difluorophenyl)-7,8-dihydropyrido[2,3-d]pyridazin-5(6H)-one], the inhibition at 10 µM came to 100%. As to `O=C(OC1CCOC1)N(Cc1ccc(F)cc1)N1Cc2ccc(-c3nnc(C(F)F)o3)cc2C1=O` (stereo not drawn) [Example 26c, oxolan-3-yl {6-[5-(difluoromethyl)-1,3,4-oxadiazol-2-yl]-1-oxo-1,3-dihydro-2H-isoindol-2-yl}[(4-fluorophenyl)methyl]carbamate], the inhibition at 10 µM worked out at 99%. On to `O=C(OCc1ccccn1)N(Cc1ccc(F)cc1)N1Cc2ccc(-c3nnc(C(F)F)o3)cc2C1=O` [Example 25c, (pyridin-2-yl)methyl {6-[5-(difluoromethyl)-1,3,4-oxadiazol-2-yl]-1-oxo-1,3-dihydro-2H-isoindol-2-yl}[(4-fluorophenyl)methyl]carbamate], for which the inhibition at 10 µM came out at 99%. The same measure, in the same setting: as for `CCN1C(=O)c2cc(-c3nnc(C(F)F)o3)ccc2CN1c1ccc(F)cc1` [Example 46b, 7-[5-(difluoromethyl)-1,3,4-oxadiazol-2-yl]-2-ethyl-3-(4-fluorophenyl)-3,4-dihydrophthalazin-1(2H)-one], the figure is 100%; as for `CN(Cc1ccccc1C(F)F)N1Cc2ccc(-c3nnc(C(F)F)o3)cc2C1=O` [Example 65c, 6-[5-(difluoromethyl)-1,3,4-oxadiazol-2-yl]-2-[{[2-(difluoromethyl)phenyl]methyl} (methyl)amino]-2,3-dihydro-1H-isoindol-1-one], 101%.
